Results reported in PubChem BioAssay AID328 (DTP/NCI, 2004).
“And” between values parts separate entries of the source, which are not always exact repeats. Equal entries are not always repeated. Toxic doses and inconclusive results are not listed.

System: BDF1 mice, P388 leukemia ip, median survival T/C
Assay: NCI In Vivo Anticancer Drug Screen. Data for tumor model P388 Leukemia (intraperitoneal) in B6D2F1 (BDF1) mice
Settings: endpoint: median survival time, higher = longer survival
Method in brief: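 Survival ratio, drug arm over vehicle arm, in mice with a transplanted tumour.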

[1] = dose: 12.5 mg/kg/injection, schedule: Q01DX009 (ip), vehicle: saline
[2] = dose: 50.0 mg/kg/injection, schedule: Q01DX009 (ip), vehicle: saline
[3] = dose: 25.0 mg/kg/injection, schedule: Q01DX009 (ip), vehicle: saline with Tween-80
[4] = dose: 50.0 mg/kg/injection, schedule: Q01DX009 (ip), vehicle: saline with Tween-80
[5] = dose: 100.0 mg/kg/injection, schedule: Q01DX009 (ip), vehicle: saline with Tween-80
[6] = dose: 100.0 mg/kg/injection, schedule: Q04DX003 (ip), vehicle: saline with Tween-80
[7] = dose: 200.0 mg/kg/injection, schedule: Q04DX003 (ip), vehicle: saline with Tween-80
[8] = dose: 400.0 mg/kg/injection, schedule: Q04DX003 (ip), vehicle: saline with Tween-80
[9] = dose: 25.0 mg/kg/injection, schedule: Q01DX009 (ip), vehicle: saline
[10] = dose: 100.0 mg/kg/injection, schedule: Q01DX009 (ip), vehicle: Klucel (hydroxypropylcellulose) (HPC)
[11] = dose: 100.0 mg/kg/injection, schedule: Q04DX003 (ip), vehicle: Klucel (hydroxypropylcellulose) (HPC)
[12] = dose: 100.0 mg/kg/injection, schedule: Q04DX003 (ip), vehicle: saline
[13] = dose: 200.0 mg/kg/injection, schedule: Q04DX003 (ip), vehicle: saline
[14] = dose: 400.0 mg/kg/injection, schedule: Q04DX003 (ip), vehicle: saline

## CC(/C=N/N=C(N)N)=N\N=C(N)N.O=C([O-])C(=O)[O-].O=C([O-])C(=O)[O-].[Nb+5].[O-][O-].[O-][O-]
[1]
  T/C: 97 % of control
[2]
  T/C: 90 % of control

## CS(=O)(=O)OCCC(=O)N1CCN(C(=O)CCOS(C)(=O)=O)CC1
dose: 11.2 mg/kg/injection, schedule: Q01DX010 (ip), vehicle: saline
  T/C: 150 % of control
dose: 22.5 mg/kg/injection, schedule: Q01DX010 (ip), vehicle: saline
  T/C: 163 % of control
dose: 45.0 mg/kg/injection, schedule: Q01DX010 (ip), vehicle: saline
  T/C: 150 % of control
dose: 90.0 mg/kg/injection, schedule: Q01DX010 (ip), vehicle: saline
  T/C: 250 % of control

## CC1CCCN2C(=O)CN(N3CCOCC3)CC(=O)N12 (stereo not given)
dose: 100.0 mg/kg/injection, schedule: Q04DX002 (ip), vehicle: saline with Tween-80
  T/C: 121 % of control

## O=C1/C(=C/c2ccc(Cl)cc2Cl)CCC/C1=C\c1ccc(Cl)cc1Cl
[3]
  T/C: 88 % of control
[4]
  T/C: 100 % of control
[5]
  T/C: 88 % of control

## O=[N+]([O-])c1ccc(NS(=O)(=O)c2ccc(Cl)c(Cl)c2Cl)c([N+](=O)[O-])c1
[3]
  T/C: 96 % of control
[4]
  T/C: 105 % of control
[5]
  T/C: 102 % of control

## O=C(Nc1ccc(F)cc1)c1ccc(C(=O)Nc2ccc(F)cc2)cc1
[6]
  T/C: 108 % of control
[7]
  T/C: 91 % of control
[8]
  T/C: 91 % of control

## COc1cc(C)c(NC(=O)Oc2ccccc2)c(C)c1
[6]
  T/C: 104 % of control
[7]
  T/C: 104 % of control
[8]
  T/C: 104 % of control

## Cc1cccc(C)c1NC(=O)N(CCCl)N=O
dose: 0.88 mg/kg/injection, schedule: Q01DX009 (ip), vehicle: saline with Tween-80
  T/C: 159 % of control
dose: 1.32 mg/kg/injection, schedule: Q01DX009 (ip), vehicle: saline with Tween-80
  T/C: 159 % of control
dose: 2.0 mg/kg/injection, schedule: Q01DX009 (ip), vehicle: saline with Tween-80
  T/C: 204 % of control
dose: 3.0 mg/kg/injection, schedule: Q01DX009 (ip), vehicle: saline with Tween-80
  T/C: 200 % of control
dose: 12.5 mg/kg/injection, schedule: Q04DX003 (ip), vehicle: saline with Tween-80
  T/C: 86 % of control
dose: 25.0 mg/kg/injection, schedule: Q04DX003 (ip), vehicle: saline with Tween-80
  T/C: 109 % of control

## OCCN1CCN(CCCN2c3ccccc3Sc3cccnc32)CC1
[1]
  T/C: 104 % of control
dose: 18.75 mg/kg/injection, schedule: Q04DX003 (ip), vehicle: saline
  T/C: 96 % of control
[9]
  T/C: 108 % of control and 110 % of control
dose: 37.5 mg/kg/injection, schedule: Q04DX003 (ip), vehicle: saline
  T/C: 107 % of control
[2]
  T/C: 122 % of control

## CC(=O)Nc1nccs1
dose: 25.0 mg/kg/injection, schedule: Q01DX009 (ip), vehicle: Klucel (hydroxypropylcellulose) (HPC)
  T/C: 104 % of control
dose: 25.0 mg/kg/injection, schedule: Q04DX003 (ip), vehicle: Klucel (hydroxypropylcellulose) (HPC)
  T/C: 95 % of control
dose: 50.0 mg/kg/injection, schedule: Q01DX009 (ip), vehicle: Klucel (hydroxypropylcellulose) (HPC)
  T/C: 95 % of control
dose: 50.0 mg/kg/injection, schedule: Q04DX003 (ip), vehicle: Klucel (hydroxypropylcellulose) (HPC)
  T/C: 91 % of control
[10]
  T/C: 109 % of control
[11]
  T/C: 95 % of control

## ClCCn1cnc2c(SCc3ccccc3)ncnc21
[6]
  T/C: 100 % of control
[7]
  T/C: 100 % of control
[8]
  T/C: 100 % of control

## COc1ccc(C(O)c2ccccn2)cc1 (stereo not given)
[6]
  T/C: 100 % of control
[7]
  T/C: 110 % of control
[8]
  T/C: 105 % of control

## O=C(c1ccccc1)N1CCC(CCO)C(O)C1Cc1c[nH]c2ccccc12 (stereo not given)
[9]
  T/C: 100 % of control
[2]
  T/C: 96 % of control
dose: 50.0 mg/kg/injection, schedule: Q04DX003 (ip), vehicle: saline
  T/C: 96 % of control
dose: 100.0 mg/kg/injection, schedule: Q01DX009 (ip), vehicle: saline
  T/C: 86 % of control
[12]
  T/C: 100 % of control
dose: 200.0 mg/kg/injection, schedule: Q01DX009 (ip), vehicle: saline
  T/C: 108 % of control
[13]
  T/C: 96 % of control
dose: 400.0 mg/kg/injection, schedule: Q01DX009 (ip), vehicle: saline
  T/C: 110 % of control
[14]
  T/C: 98 % of control

## O=C(O)c1ccc(SSc2ccc(C(=O)O)cn2)nc1
[10]
  T/C: 92 % of control and 104 % of control
[11]
  T/C: 100 % of control
[12]
  T/C: 118 % of control
dose: 200.0 mg/kg/injection, schedule: Q01DX009 (ip), vehicle: Klucel (hydroxypropylcellulose) (HPC)
  T/C: 109 % of control and 119 % of control
dose: 200.0 mg/kg/injection, schedule: Q04DX003 (ip), vehicle: Klucel (hydroxypropylcellulose) (HPC)
  T/C: 100 % of control
[13]
  T/C: 109 % of control
dose: 400.0 mg/kg/injection, schedule: Q01DX009 (ip), vehicle: Klucel (hydroxypropylcellulose) (HPC)
  T/C: 107 % of control and 109 % of control
dose: 400.0 mg/kg/injection, schedule: Q04DX003 (ip), vehicle: Klucel (hydroxypropylcellulose) (HPC)
  T/C: 100 % of control
[14]
  T/C: 113 % of control
